Columns and labels:
E. coli UBMS 88-1 Tet B = assay: microbe, parasite or virus in culture; type: cell-based; settings: E. coli UBMS 88-1 Tet B; 18 hours at 35° C.
E. coli J3272 Tet sens. = assay: MIC, agar dilution; type: cell-based
E. coli PRP1 Tet A = assay: microbe, parasite or virus in culture; type: cell-based; settings: E. coli PRP1 Tet A
[1] = test system: E. coli MC 4100 TNIOC Tet B; assay: microbe, parasite or virus in culture; type: cell-based; settings: E. coli MC 4100 TNIOC Tet B
E. coli UBMS 89-1 Tet M = assay: microbe, parasite or virus in culture; type: cell-based; settings: E. coli UBMS 89-1 Tet M
[2] = test system: E. coli UBMS 89-2 Tet sens.; assay: MIC, agar dilution; type: cell-based; settings: E. coli UBMS 89-2 Tet sens.
E. coli UBMS 90-4 Tet M = assay: microbe, parasite or virus in culture; type: cell-based; settings: E. coli UBMS 90-4 Tet M
E. coli UBMS 90-5 = assay: MIC, agar dilution; type: cell-based
E. coli J3272 Tet D = assay: microbe, parasite or virus in culture; type: cell-based; settings: E. coli J3272 Tet D
S. mariescens FPOR 8733 = assay: MIC, agar dilution; type: cell-based
[3] = test system: Ps. acruginosa ATCC 27853; assay: MIC, agar dilution; type: cell-based; settings: Ps. acruginosa ATCC 27853
S. aureus UBMS 88-4 = assay: MIC, agar dilution; type: cell-based; settings: S. aureus UBMS 88-4
[4] = test system: S. aureus UBMS 88-7 Tet K; assay: microbe, parasite or virus in culture; type: cell-based; settings: S. aureus UBMS 88-7 Tet K
[5] = test system: S. aureus UBMS 90-1 Tet M; assay: microbe, parasite or virus in culture; type: cell-based; settings: S. aureus UBMS 90-1 Tet M
S. aureus UBMS 90-3 = assay: MIC, agar dilution; type: cell-based; settings: S. aureus UBMS 90-3
[6] = test system: S. aureus UBMS 90-2 Tet M; assay: microbe, parasite or virus in culture; type: cell-based; settings: S. aureus UBMS 90-2 Tet M
S. aureus IVES 2943 = assay: MIC, agar dilution; type: cell-based; settings: S. aureus IVES 2943
S. aureus ROSE (MP) = assay: MIC, agar dilution; type: cell-based; settings: S. aureus ROSE (MP)
S. aureus SMITH (MP) = assay: MIC, agar dilution; type: cell-based; settings: S. aureus SMITH (MP)
S. aureus IVES 1 983 = assay: MIC, agar dilution; type: cell-based; settings: S. aureus IVES 1 983
[7] = test system: S. hemolyticus AVHAH 88-3; assay: MIC, agar dilution; type: cell-based; settings: S. hemolyticus AVHAH 88-3
[8] = test system: Staphylococcus aureus strain Smith (tetracycline sensitive); assay: In vivo antibacterial evaluation, acute lethal infection in mice; settings: animals infected with S. aureus Smith, 10080 min
the ribosome = assay: Reversibility of binding: bacterial growth resumes after washing; type: cell-based; settings: bacterial growth resumes when the compound is removed from the cultures by washing
Text: Therefore, the ability of these compounds to inhibit bacterial growth appears to be a direct consequence of its ability to inhibit protein synthesis at the ribosome level.

[9] = test system: tetracycline sensitive and resistant Gram-positive and Gram-negative bacteria; assay: In vitro antibacterial activity, summary in words of Table I; type: cell-based; settings: for in vitro activity against tetracycline resistant strains containing tetM and tetB resistance determinants: S. aureus UBMS 88-5, 90-1, 90-2, E. coli UBMS 89-1, 90-4, 88-1, TN10C tetB; for activity against recently isolated bacteria from clinical sources compared with minocycline: clinical isolates
[10] = test system: Wild Type S30 (wild type ribosomes, E. coli strain MRE600, tetracycline sensitive); assay: E. coli in vitro protein translation system, wild type S30; settings: for inhibition of protein synthesis occuring on wild type ribosomes: coupled transcription and translation system
E. coli J3272 Tet C = assay: microbe, parasite or virus in culture; type: cell-based; settings: E. coli J3272 Tet C
E. coli J2175 = assay: MIC, agar dilution; type: cell-based; settings: E. coli J2175
E. coli BAJ9003 IMP MUT = assay: microbe, parasite or virus in culture; type: cell-based; settings: E. coli BAJ9003 IMP MUT
E. coli #311 (MP) = assay: MIC, agar dilution; type: cell-based; settings: E. coli #311 (MP)
E. coli ATCC 25922 = assay: MIC, agar dilution; type: cell-based; settings: E. coli ATCC 25922
S. aureus NEMC 8769 = assay: MIC, agar dilution; type: cell-based; settings: S. aureus NEMC 8769
[11] = test system: S. aureus UBMS 88-5 Tet M; assay: microbe, parasite or virus in culture; type: cell-based; settings: S. aureus UBMS 88-5 Tet M
S. aureus ATCC 29213 = assay: MIC, agar dilution; type: cell-based; settings: S. aureus ATCC 29213
Enterococcus 12201 = assay: MIC, agar dilution; type: cell-based; settings: Enterococcus 12201

Row | Compound | MIC (E. coli UBMS 88-1 Tet B) | MIC (E. coli J3272 Tet sens.) | MIC (E. coli PRP1 Tet A) | MIC [1] | MIC (E. coli UBMS 89-1 Tet M) | MIC [2] | MIC (E. coli UBMS 90-4 Tet M) | MIC (E. coli UBMS 90-5) | MIC (E. coli J3272 Tet D) | MIC (S. mariescens FPOR 8733) | MIC [3] | MIC (S. aureus UBMS 88-4) | MIC [4] | MIC [5] | MIC (S. aureus UBMS 90-3) | MIC (S. aureus IVES 2943) | MIC (S. aureus ROSE (MP)) | MIC (S. aureus IVES 1 983) | MIC [7] | reversibility of binding to the ribosome (the ribosome) | other results
1 | CC1CCN(CC(=O)Nc2cc(N(C)C)c3c(c2O)C(=O)C2=C(O)C4(O)C(=O)C(C(N)=O)=C(O)C(N(C)C)C4CC2C3)CC1.Cl.Cl (stereo not drawn) [G, [7S-(7alpha,10aalpha)]-N-[9-(Aminocarbonyl)4,7-bis(dimethylamino)-5,5a,6,6a,7,10,10a,12-octahydro-1,8,10a,ll-tetrahydroxy-10,12-dioxo-2-naphthacenyl]-4-methyl-l-piperidineacetamide dihydrochloride] | 2 µg/mL | 1 µg/mL | 2 µg/mL | 2 µg/mL | 0.5 µg/mL | 2 µg/mL | 1 µg/mL | 2 µg/mL | 0.25 µg/mL | 16 µg/mL | 32 µg/mL | 0.5 µg/mL | 0.5 µg/mL | 0.5 µg/mL | 0.5 µg/mL | 0.5 µg/mL | 1 µg/mL | 0.5 µg/mL | 1 µg/mL | bind reversibly | MIC [6]: 0.5 µg/mL; MIC (S. aureus SMITH (MP)): 0.5 µg/mL; ED50 ([8]; administered intravenously): 1 to 2 mg/kg; ED50 ([8]; given orally): 4 to 8 mg/kg; activity against E. coli tetA, E. coli tetC and E. coli tetD [9]: good activity; in vitro activity against tetracycline resistant strains containing tetM and tetB resistance determinants [9]: excellent; activity against recently isolated bacteria from clinical sources compared with minocycline [9]: superior to that of minocycline; activity against susceptible strains compared with minocycline [9]: equallyas effective as minocycline; % Inhibition Wild Type S30 ([10]; Conc. 0.06 mg/ml): 90%; % Inhibition Wild Type S30 ([10]; Conc. 1.0 mg/ml): 99%; inhibition of protein synthesis occuring on wild type ribosomes [10]: effectively inhibit protein synthesis
2 | [4S-(4alpha,12aalpha)]-4,7-Bis(dimethylamino)-1,4,4a,5,5a,6,11,12a-octahydro-3,10, 12,12a-tetrahydroxy-1,11-dioxo-9-[[(2-propenylamino)acetyl]amino]-2-naphthacenecarboxamide dihydrochloride | 1 µg/mL | 0.5 µg/mL | 8 µg/mL | 1 µg/mL | 0.5 µg/mL | 0.5 µg/mL | 0.5 µg/mL | 0.5 µg/mL | 0.25 µg/mL | 8 µg/mL | 16 µg/mL | 0.25 µg/mL | 8 µg/mL | 0.5 µg/mL | 0.25 µg/mL | 8 µg/mL | 8 µg/mL | 8 µg/mL | 0.5 µg/mL | bind reversibly | MIC (E. coli J3272 Tet C): 1 µg/mL; MIC (E. coli J2175): 0.5 µg/mL; MIC (E. coli BAJ9003 IMP MUT): 0.12 µg/mL; MIC (E. coli #311 (MP)): 0.5 µg/mL; MIC (E. coli ATCC 25922): 0.5 µg/mL; MIC (S. aureus NEMC 8769): 0.12 µg/mL; MIC [11]: 0.25 µg/mL; MIC (S. aureus ATCC 29213): 0.25 µg/mL; MIC (Enterococcus 12201): 0.25 µg/mL; activity against E. coli tetA, E. coli tetC and E. coli tetD [9]: good activity; in vitro activity against tetracycline resistant strains containing tetM and tetB resistance determinants [9]: excellent; activity against recently isolated bacteria from clinical sources compared with minocycline [9]: superior to that of minocycline; activity against susceptible strains compared with minocycline [9]: equallyas effective as minocycline; % Inhibition Wild Type S30 ([10]; Conc. 0.06 mg/ml): 93%; % Inhibition Wild Type S30 ([10]; Conc. 1.0 mg/ml): 99%; inhibition of protein synthesis occuring on wild type ribosomes [10]: effectively inhibit protein synthesis
